# The supplement of paper PMC10307832
# Experiments:
# Experiment in all cases: relative viability (nuclei count vs DMSO), 5 days (fraction); higher = more cells survive
# 201T = test system: 201T
# Method in brief: (§1)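 For relative viability, nuclei counts in treated wells were divided by those in vehicle wells. Lung cancer cell lines had been pin-tool dosed in 1536-well plates the day after seeding and cultured for 5 days, then fixed and stained in one step (final 0.05% Triton X-100, 1% formaldehyde, 1 ug/ml Hoechst) and imaged at 4×. Doses were one drug alone or a fixed anchor-drug dose plus five library-drug doses (not always all listed) in √10 steps, and values are duplicate-plate medians.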
# BEN = test system: BEN
# Method in brief: as §1
# CAL-12T = test system: CAL-12T
# Method in brief: as §1
# HCC-827 = test system: HCC-827
# Method in brief: as §1
# LCLC-97TM1 = test system: LCLC-97TM1
# Method in brief: as §1
# LXF-289 = test system: LXF-289
# Method in brief: as §1
# NCI-H1395 = test system: NCI-H1395
# Method in brief: as §1
# NCI-H1437 = test system: NCI-H1437
# Method in brief: as §1
# NCI-H1650 = test system: NCI-H1650
# Method in brief: as §1
# NCI-H1792 = test system: NCI-H1792
# Method in brief: as §1
# NCI-H1793 = test system: NCI-H1793
# Method in brief: as §1
# NCI-H1944 = test system: NCI-H1944
# Method in brief: as §1
# NCI-H2087 = test system: NCI-H2087
# Method in brief: as §1
# NCI-H2228 = test system: NCI-H2228
# Method in brief: as §1
# NCI-H2405 = test system: NCI-H2405
# Method in brief: as §1
# NCI-H3122 = test system: NCI-H3122
# Method in brief: as §1
# NCI-H322M = test system: NCI-H322M
# Method in brief: as §1
# NCI-H647 = test system: NCI-H647
# Method in brief: as §1
# NCI-H727 = test system: NCI-H727
# Method in brief: as §1
# RERF-LC-KJ = test system: RERF-LC-KJ
# Method in brief: as §1
# SK-LU-1 = test system: SK-LU-1
# Method in brief: as §1
smiles,measurement,setting,value
COc1nc(C)cnc1NS(=O)(=O)c1cccnc1-c1ccc(-c2nnco2)cc1 [Zibotentan] + CC1(C)CCC(c2ccc(Cl)cc2)=C(CN2CCN(c3ccc(C(=O)NS(=O)(=O)c4ccc(N[C@H](CCN5CCOCC5)CSc5ccccc5)c(S(=O)(=O)C(F)(F)F)c4)cc3)CC2)C1 [Navitoclax] (partner 0.5 µM),relative viability,201T; first compound 0.08 µM,1.23
same,relative viability,201T; first compound 0.253 µM,1.21
same,relative viability,201T; first compound 0.8 µM,1.23
same,relative viability,201T; first compound 2.53 µM,1.21
same,relative viability,BEN; first compound 0.08 µM,0.0813
same,relative viability,BEN; first compound 0.253 µM,0.0646
same,relative viability,BEN; first compound 0.8 µM,0.059
same,relative viability,BEN; first compound 2.53 µM,0.0664
same,relative viability,CAL-12T; first compound 0.08 µM,1.27
same,relative viability,CAL-12T; first compound 0.253 µM,1
same,relative viability,CAL-12T; first compound 0.8 µM,1.45
same,relative viability,CAL-12T; first compound 2.53 µM,1.06
same,relative viability,HCC-827; first compound 0.08 µM,1.01
same,relative viability,HCC-827; first compound 0.253 µM,1
same,relative viability,HCC-827; first compound 0.8 µM,1.02
same,relative viability,HCC-827; first compound 2.53 µM,1.02
same,relative viability,LCLC-97TM1; first compound 0.08 µM,0.365
same,relative viability,LCLC-97TM1; first compound 0.253 µM,0.402
same,relative viability,LCLC-97TM1; first compound 0.8 µM,0.403
same,relative viability,LCLC-97TM1; first compound 2.53 µM,0.447
same,relative viability,LXF-289; first compound 0.08 µM,0.96
same,relative viability,LXF-289; first compound 0.253 µM,0.945
same,relative viability,LXF-289; first compound 0.8 µM,0.938
same,relative viability,LXF-289; first compound 2.53 µM,0.968
same,relative viability,NCI-H1395; first compound 0.08 µM,1.54
same,relative viability,NCI-H1395; first compound 0.253 µM,1.03
same,relative viability,NCI-H1395; first compound 0.8 µM,1.07
same,relative viability,NCI-H1395; first compound 2.53 µM,1.12
same,relative viability,NCI-H1437; first compound 0.08 µM,1.12
same,relative viability,NCI-H1437; first compound 0.253 µM,1.04
same,relative viability,NCI-H1437; first compound 0.8 µM,1.07
same,relative viability,NCI-H1437; first compound 2.53 µM,1.17
same,relative viability,NCI-H1650; first compound 0.08 µM,1.26
same,relative viability,NCI-H1650; first compound 0.8 µM,1.36
same,relative viability,NCI-H1650; first compound 2.53 µM,1.09
same,relative viability,NCI-H1792; first compound 0.08 µM,0.597
same,relative viability,NCI-H1792; first compound 0.253 µM,0.605
same,relative viability,NCI-H1792; first compound 0.8 µM,0.588
same,relative viability,NCI-H1792; first compound 2.53 µM,0.604
same,relative viability,NCI-H1793; first compound 0.08 µM,0.506
same,relative viability,NCI-H1793; first compound 0.253 µM,0.405
same,relative viability,NCI-H1793; first compound 0.8 µM,0.414
same,relative viability,NCI-H1793; first compound 2.53 µM,0.486
same,relative viability,NCI-H1944; first compound 0.08 µM,1.06
same,relative viability,NCI-H1944; first compound 0.253 µM,1.07
same,relative viability,NCI-H1944; first compound 0.8 µM,0.977
same,relative viability,NCI-H1944; first compound 2.53 µM,1.03
same,relative viability,NCI-H2087; first compound 0.08 µM,1.03
same,relative viability,NCI-H2087; first compound 0.253 µM,1.15
same,relative viability,NCI-H2087; first compound 0.8 µM,0.983
same,relative viability,NCI-H2087; first compound 2.53 µM,1.05
same,relative viability,NCI-H2228; first compound 0.08 µM,0.942
same,relative viability,NCI-H2228; first compound 0.253 µM,0.85
same,relative viability,NCI-H2228; first compound 0.8 µM,0.685
same,relative viability,NCI-H2228; first compound 2.53 µM,1.44
same,relative viability,NCI-H2405; first compound 0.08 µM,0.904
same,relative viability,NCI-H2405; first compound 0.253 µM,0.725
same,relative viability,NCI-H2405; first compound 0.8 µM,0.921
same,relative viability,NCI-H2405; first compound 2.53 µM,1.01
same,relative viability,NCI-H3122; first compound 0.08 µM,1.04
same,relative viability,NCI-H3122; first compound 0.253 µM,1.01
same,relative viability,NCI-H3122; first compound 0.8 µM,1.04
same,relative viability,NCI-H3122; first compound 2.53 µM,1.06
same,relative viability,NCI-H322M; first compound 0.08 µM,1.12
same,relative viability,NCI-H322M; first compound 0.253 µM,1.18
same,relative viability,NCI-H322M; first compound 0.8 µM,1.23
same,relative viability,NCI-H322M; first compound 2.53 µM,1.3
same,relative viability,NCI-H647; first compound 0.08 µM,1.34
same,relative viability,NCI-H647; first compound 0.253 µM,0.875
same,relative viability,NCI-H647; first compound 0.8 µM,1
same,relative viability,NCI-H647; first compound 2.53 µM,1.17
same,relative viability,NCI-H727; first compound 0.08 µM,0.48
same,relative viability,NCI-H727; first compound 0.253 µM,0.396
same,relative viability,NCI-H727; first compound 0.8 µM,0.48
same,relative viability,NCI-H727; first compound 2.53 µM,0.435
same,relative viability,RERF-LC-KJ; first compound 0.08 µM,0.996
same,relative viability,RERF-LC-KJ; first compound 0.253 µM,1.2
same,relative viability,RERF-LC-KJ; first compound 0.8 µM,0.887
same,relative viability,RERF-LC-KJ; first compound 2.53 µM,0.976
same,relative viability,SK-LU-1; first compound 0.08 µM,0.911
same,relative viability,SK-LU-1; first compound 0.253 µM,0.683
same,relative viability,SK-LU-1; first compound 0.8 µM,1.04
same,relative viability,SK-LU-1; first compound 2.53 µM,0.781
